Reference: article PMC6015500 (ACS combinatorial science, 2015)
pEC50: −log10 of the molar value. Where two headings read alike, the source gives them in different places.

Legend:
[1] = system: HCV-Luc (recombinant HCV carrying the Renilla luciferase reporter); assay: HCV-Luc infection assay; assay type: cell-based, hepatitis C virus (HCV)
[2] = system: Huh7.5.1 cells; assay: in vitro; assay type: cell-based
[3] = in vitro; assay type: cell-based; conditions: human
[4] = in vitro; assay type: cell-based; conditions: human; remark: listed apart in the source
[5] = system: single-round infectious HCV (HCVsc); assay: HCV single-cycle assay; assay type: cell-based, hepatitis C virus (HCV); conditions: tested at 10 µM; % of DMSO control
[6] = system: HCV pseudoparticle (HCVpp) GT 1a; assay: HCVpp entry assay, genotype 1a; assay type: cell-based, hepatitis C virus (HCV); conditions: tested at 10 µM; % of DMSO control
[7] = system: HCV pseudoparticle (HCVpp) GT 1b; assay: HCVpp entry assay, genotype 1b; assay type: cell-based, hepatitis C virus (HCV); conditions: tested at 10 µM; % of DMSO control
[8] = system: VSVpp; assay type: cell-based
[9] = system: HCV replicon cell line of genotype 1b; assay: HCV subgenomic replicon assay, genotype 1b; assay type: cell-based, hepatitis C virus (HCV); conditions: tested at 10 µM; % of DMSO control
[10] = system: HCV replicon cell line of genotype 2a; assay: HCV subgenomic replicon assay, genotype 2a; assay type: cell-based, hepatitis C virus (HCV); conditions: tested at 10 µM; % of DMSO control
[11] = system: transient genotype 1a subgenomic replicon in Huh7.5.1 cells; assay: Transient genotype 1a replicon assay; assay type: cell-based, hepatitis C virus (HCV); conditions: tested at 10 µM; % of DMSO control
[12] = In vitro microsomal stability; assay type: in vitro ADME; conditions: CD-1, mouse, liver microsomes
[13] = Double-sink PAMPA permeability; assay type: in vitro ADME
[14] = system: wild-type HCV (HCVcc, genotype 2a); assay: HCVcc wild-type infection assay; assay type: cell-based, hepatitis C virus (HCV); conditions: Huh7.5.1 cells, compounds at 10 µM, 48 h, quantitative real-time PCR

SMILES	inhibitory activity in the HCV-Luc assay [1]	pEC50 ([1]; read-out: HCV-Luc EC50, Huh7.5.1 cells, 48 h, Renilla luciferase signal)	CC50 [2] [µM]	pEC50 ([1]; Huh-7.5.1, 48 h, read-out: HCV-Luc EC50)	pEC50 ([1]; Huh-7.5.1, read-out: HCV-Luc EC50)	Selective Index (SI) ([1]; SI = CC50/EC50, Huh7.5.1 cells)	CC50 at 48 h [3] [µM]	CC50 [4] [µM]	HCVsc DMSO (%) [5] [%]	HCVpp DMSO (%) GT la [6] [%]	HCVpp DMSO (%) GT lb [7] [%]	VSVpp DMSO (%) [8] [%]	HCV Replicon DMSO (%) GT lb [9] [%]	HCV Replicon DMSO (%) GT 2a [10] [%]	HCV Replicon DMSO (%) Transient la [11] [%]	half-life [12] [min]	Papp ([13]; PAMPA) [nm/s]	permeability ([13]; double-sink PAMPA)	extracellular and intracellular viral RNA levels [14]
COc1ccc(-c2ccc3oc(-c4ccc(OC)cc4)c(C#CCCO)c3c2)cc1 [2{1}]	low-micromolar	6.01	70.9																
COc1ccc(-c2oc3ccc(-c4ccc5c(c4)OCO5)nc3c2C#CC2(O)CCCCC2)cc1 [10{21}, 1-((5-(Benzo[d][1,3]dioxol-5-yl)-2-(4-methoxyphenyl)furo-[3,2-b]pyridin-3-yl)ethynyl)cyclohexanol]				6.74	6.74	>543	> 100	92.3	20.0	41.2	78.1	121	82.1	121	194	> 30	< 154	moderate permeability	most promising activity
